The source of these data is patent publication US7531547B2, “Diaminopyrimidines as P2X3 and P2X2/3 modulators” (Roche Palo Alto LLC, priority 2005, dated 2009).

In one data set the target is T1, rat P2X3 receptor (Rattus norvegicus, UniProt P49654).
T1 construct: expressed in transfected cells; host or cells: CHO-K1
T1 sequence (P49654 1-397): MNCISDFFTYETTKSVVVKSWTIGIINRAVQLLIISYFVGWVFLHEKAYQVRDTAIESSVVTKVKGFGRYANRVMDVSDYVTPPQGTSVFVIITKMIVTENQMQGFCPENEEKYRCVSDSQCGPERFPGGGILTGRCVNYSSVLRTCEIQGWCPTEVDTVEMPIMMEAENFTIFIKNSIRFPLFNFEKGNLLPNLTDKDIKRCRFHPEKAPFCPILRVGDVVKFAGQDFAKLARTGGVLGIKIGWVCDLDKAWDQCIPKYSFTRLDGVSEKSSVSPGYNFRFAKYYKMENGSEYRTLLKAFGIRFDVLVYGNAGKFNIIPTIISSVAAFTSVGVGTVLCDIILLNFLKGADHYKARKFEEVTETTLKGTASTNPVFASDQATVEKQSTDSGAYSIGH
Description: P2X3 FLIPR (Fluorometric Imaging Plate Reader) assay, CHO-K1 cells. It is filed as cell-based. Particulars: CHO-K1 cells transfected with rat P2X3; agonist α,β-meATP 1 μM; Fluo-3 calcium fluorescence; read-out: pIC50 for the P2X3 receptor (converted). On the procedure:
(§1) CHO-K1 cells were transfected with cloned rat P2X3 or human P2X2/3 receptor subunits and passaged in flasks. 18-24 hours before the FLIPR experiment, cells were released from their flasks, centrifuged, and resuspended in nutrient medium at 2.5×10^5 cells/ml. The cells were aliquoted into black-walled 96-well plates at a density of 50,000 cells/well and incubated overnight in 5% CO2 at 37° C. On the day of the experiment, cells were washed in FLIPR buffer (calcium- and magnesium-free Hank's balanced salt solution, 10 mM HEPES, 2 mM CaCl2, 2.5 mM probenecid; FB). Each well received 100 μl FB and 100 μl of the fluorescent dye Fluo-3 AM [2 μM final conc.]. […]
(§2) Test compounds (dissolved in DMSO at 10 mM and serially diluted with FB) or vehicle were added to each well (25 μl of a 4× solution) and allowed to equilibrate for 20 minutes at room temperature. The plates were then placed in the FLIPR and a baseline fluorescence measurement (excitation at 488 nm and emission at 510-570 nm) was obtained for 10 seconds before a 100 μl/well agonist or vehicle addition. […] Fluorescence was measured for an additional 2 minutes at 1 second intervals after agonist addition. A final addition of ionomycin (5 μM, final concentration) was made to each well of the FLIPR test plate to establish cell viability and maximum fluorescence of dye-bound cytosolic calcium. […]

In a further data set the target is T2, human P2X2/3 receptor (Homo sapiens, UniProt P56373+Q9UBL9).
T2 construct: expressed in transfected cells; host or cells: CHO-K1
T2 sequence (Q9UBL9 1-471): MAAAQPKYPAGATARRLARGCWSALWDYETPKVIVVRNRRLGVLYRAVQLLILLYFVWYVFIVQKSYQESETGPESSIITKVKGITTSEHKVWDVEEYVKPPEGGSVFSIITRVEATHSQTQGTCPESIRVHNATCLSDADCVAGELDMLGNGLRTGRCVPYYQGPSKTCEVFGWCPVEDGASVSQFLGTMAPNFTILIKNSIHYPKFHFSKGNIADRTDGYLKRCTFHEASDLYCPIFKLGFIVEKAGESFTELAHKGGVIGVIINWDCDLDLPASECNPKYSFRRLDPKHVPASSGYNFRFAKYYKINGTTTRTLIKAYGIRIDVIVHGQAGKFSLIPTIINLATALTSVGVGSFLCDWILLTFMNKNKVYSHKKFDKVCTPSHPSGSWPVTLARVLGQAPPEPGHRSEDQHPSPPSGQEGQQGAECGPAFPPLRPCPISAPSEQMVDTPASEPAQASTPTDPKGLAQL
T2 sequence (P56373 1-397): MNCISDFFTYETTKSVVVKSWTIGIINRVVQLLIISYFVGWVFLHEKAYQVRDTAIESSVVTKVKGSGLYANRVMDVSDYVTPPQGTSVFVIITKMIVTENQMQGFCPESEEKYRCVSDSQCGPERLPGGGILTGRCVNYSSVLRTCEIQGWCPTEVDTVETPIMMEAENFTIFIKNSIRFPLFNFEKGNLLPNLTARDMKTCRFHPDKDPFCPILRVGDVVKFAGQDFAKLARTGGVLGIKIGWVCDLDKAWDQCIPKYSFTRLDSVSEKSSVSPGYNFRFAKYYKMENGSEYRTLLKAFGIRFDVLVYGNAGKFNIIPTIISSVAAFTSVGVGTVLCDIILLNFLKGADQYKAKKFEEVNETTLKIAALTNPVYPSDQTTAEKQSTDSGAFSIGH
The data set can be described thus: P2X2/3 FLIPR (Fluorometric Imaging Plate Reader) assay, CHO-K1 cells. It is filed as cell-based. The following applies: CHO-K1 cells transfected with human P2X2/3; agonist α,β-meATP 5 μM; Fluo-3 calcium fluorescence; read-out: pIC50 for the P2X2/3 receptor (converted). As for the experimental part: as §1, §2

Turning to `C#Cc1ccc(I)c(Oc2cnc(N)nc2N)c1` [Compound 27, 5-(5-Ethynyl-2-iodo-phenoxy)-pyrimidine-2,4-diamine], the melting point (usually the temperature, or range, at which the solid turns liquid) fell in the range of 156 to 159 °C.

The compound `C#Cc1cc(Oc2cnc(N)nc2N)c(C#C)cc1OC` [Compound 25, 5-(2,5-Diethynyl-4-methoxy-phenoxy)-pyrimidine-2,4-diamine] gave a melting point of 163.2 to 164.1 °C. Take `C#Cc1cc(Oc2cnc(N)nc2N)c(C(C)C)cc1O` [4-(2,4-Diamino-pyrimidin-5-yloxy)-2-ethynyl-5-isopropyl-phenol]: the IC50 at rat P2X3 receptor is about 5.75 nM; on human P2X2/3 receptor, about 10.2 nM. `COc1cc(C(C)C)c(Oc2cnc(N)nc2N)cc1C#CC1CC1` [Compound 19, 5-(5-Cyclopropylethynyl-2-isopropyl-4-methoxy-phenoxy)-pyrimidine-2,4-diamine]: the melting point was in the range of 225.5 to 226.8 °C.
